Assay results reported in US9833497B2, “Human originated EGF domain proteins and use of the same” (CHENGDU SOURCEBIO LIMITED-LIABILITY COMPANY, priority 2013, dated 2017).

Assays:
Format in all cases: cell-based
Klebsiella pneumonia = test: MIC against Gram-negative bacteria: Klebsiella pneumonia
How it was run: (§1)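 Growth inhibition by human EGF domain proteins was scored in LB liquid culture seeded at 5×10^5 CFU/mL. Protein was applied as a two-fold dilution series in triplicate, with shaking incubation at 37° C; MIC is the lowest concentration giving no growth.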

Aeromonas hydrophila = test: MIC against Gram-negative bacteria: Aeromonas hydrophila
How it was run: as §1

Citrobacter diversus = test: MIC against Gram-negative bacteria: Citrobacter diversus
How it was run: as §1

Enterobacter cloacae = test: MIC against Gram-negative bacteria: Enterobacter cloacae
How it was run: as §1

Moraxella catarrhalis = test: MIC against Gram-negative bacteria: Moraxella catarrhalis
How it was run: as §1

Serratia marcescens = test: MIC against Gram-negative bacteria: Serratia marcescens
How it was run: as §1

Proteus vulgaris = test: MIC against Gram-negative bacteria: Proteus vulgaris
How it was run: as §1

E. coli BL21 = test: MIC against Gram-negative bacteria: E. coli BL21; details: for MIC (μg/mL) E. coli BL21 / MIC / MIC against E. coli BL21: E. coli BL21
How it was run: as §1

E. coli DH5α = test: Antibacterial activity: MIC and growth curve against E. coli DH5α in 96-well plate; details: minimal inhibitory concentration against E. coli DH5α; 96-well plate, 5×10^5 CFU/mL, 37° C., judged after 8 h
How it was run: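 Log-phase DH5α (OD600 about 0.5, 37° C, 185 rpm in LB) was pelleted, resuspended in fresh LB and seeded at 5×10^5 CFU/mL with recombinant protein at 50, 25 and 12.5 μg/mL (two-fold series), in triplicate. Plates were shaken at 175 rpm, 37° C, and OD600 was read every 30 min. MIC was the lowest concentration with no growth.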

Proteus mirabilis = test: MIC against Gram-negative bacteria: Proteus mirabilis
How it was run: as §1

Pseudomonas aeruginosa = test: MIC against Gram-negative bacteria: Pseudomonas aeruginosa
How it was run: as §1

[1] = K. pneumonia, 10 h cultivation at 37° C., 5×10^5 CFU/mL
[2] = A. hydrophila, 10 h cultivation at 37° C., 5×10^5 CFU/mL
[3] = C. diversus, 10 h cultivation at 37° C., 5×10^5 CFU/mL
[4] = E. cloacae, 10 h cultivation at 37° C., 5×10^5 CFU/mL
[5] = M. catarrhalis, 10 h cultivation at 37° C., 5×10^5 CFU/mL
[6] = S. marcescens, 10 h cultivation at 37° C., 5×10^5 CFU/mL
[7] = P. vulgaris, 10 h cultivation at 37° C., 5×10^5 CFU/mL
[8] = 10 h cultivation at 37° C., 5×10^5 CFU/mL
[9] = P. mirabilis, 10 h cultivation at 37° C., 5×10^5 CFU/mL
[10] = P. aeruginosa, 10 h cultivation at 37° C., 5×10^5 CFU/mL
[11] = 10 h cultivation at 37° C., 5×10^5 CFU/mL, two-fold serial dilution
[12] = K. pneumonia, 10 h cultivation at 37° C.
[13] = A. hydrophila, 10 h cultivation at 37° C.
[14] = C. diversus, 10 h cultivation at 37° C.
[15] = E. cloacae, 10 h cultivation at 37° C.
[16] = M. catarrhalis, 10 h cultivation at 37° C.
[17] = S. marcescens, 10 h cultivation at 37° C.
[18] = P. vulgaris, 10 h cultivation at 37° C.
[19] = P. mirabilis, 10 h cultivation at 37° C.
[20] = P. aeruginosa, 10 h cultivation at 37° C.
[21] = Klebsiella pneumonia, 96-well plate, 5×10^5 CFU/mL, 37° C., 10 h
[22] = Aeromonas hydrophila, 96-well plate, 5×10^5 CFU/mL, 37° C., 10 h
[23] = Citrobacter diversus, 96-well plate, 5×10^5 CFU/mL, 37° C., 10 h
[24] = Enterobacter cloacae, 96-well plate, 5×10^5 CFU/mL, 37° C., 10 h
[25] = Moraxella catarrhalis, 96-well plate, 5×10^5 CFU/mL, 37° C., 10 h
[26] = Serratia marcescens, 96-well plate, 5×10^5 CFU/mL, 37° C., 10 h
[27] = Proteus vulgaris, 96-well plate, 5×10^5 CFU/mL, 37° C., 10 h
[28] = 96-well plate, 5×10^5 CFU/mL, 37° C., 10 h
[29] = Proteus mirabilis, 96-well plate, 5×10^5 CFU/mL, 37° C., 10 h
[30] = Pseudomonas aeruginosa, 96-well plate, 5×10^5 CFU/mL, 37° C., 10 h

PRT756 (KIDYCASSNHGCQHECVNTDDSYSCHCLKGFTLNPDKKTCR; listed as Homo sapiens)
MIC (μg/mL) K. pneumonia (Klebsiella pneumonia; [1]): 50 µg/mL | MIC (μg/mL) A. hydrophila (Aeromonas hydrophila; [2]): 50 µg/mL | MIC (μg/mL) C. diversus (Citrobacter diversus; [3]): 12.5 µg/mL | MIC (μg/mL) E. cloacae (Enterobacter cloacae; [4]): 12.5 µg/mL | MIC (μg/mL) M. catarrhalis (Moraxella catarrhalis; [5]): 50 µg/mL | MIC (μg/mL) S. marcescens (Serratia marcescens; [6]): 12.5 µg/mL | MIC (μg/mL) P. vulgaris (Proteus vulgaris; [7]): 50 µg/mL | MIC (μg/mL) E. coli BL21 (E. coli BL21; [8]): 25 µg/mL | MIC (E. coli DH5α): 12.5 µg/mL | MIC (μg/mL) P. mirabilis (Proteus mirabilis; [9]): 12.5 µg/mL | MIC (μg/mL) P. aeruginosa (Pseudomonas aeruginosa; [10]): 12.5 µg/mL

PRT1046 (WGFSCNASCQCAHEAVCSPQTGACTCTPGWHGAHCQ; listed as Homo sapiens)
MIC K. pneumonia (Klebsiella pneumonia; [11]): 25 µg/mL | MIC A. hydrophila (Aeromonas hydrophila; [11]): 12.5 µg/mL | MIC C. diversus (Citrobacter diversus; [11]): 50 µg/mL | MIC E. cloacae (Enterobacter cloacae; [11]): 25 µg/mL | MIC M. catarrhalis (Moraxella catarrhalis; [11]): 50 µg/mL | MIC S. marcescens (Serratia marcescens; [11]): 12.5 µg/mL | MIC P. vulgaris (Proteus vulgaris; [11]): 25 µg/mL | MIC E. coli BL21 (E. coli BL21; [11]): 25 µg/mL | MIC (E. coli DH5α): 50 µg/mL | MIC P. mirabilis (Proteus mirabilis; [11]): 50 µg/mL | MIC P. aeruginosa (Pseudomonas aeruginosa; [11]): 50 µg/mL

PRT939 (DMNECLSEPCKNGGTCSDYVNSYTCKCQAGFDGVHCE; listed as Homo sapiens)
MIC (Klebsiella pneumonia; [12]): 12.5 µg/mL | MIC (Aeromonas hydrophila; [13]): 12.5 µg/mL | MIC (Citrobacter diversus; [14]): 50 µg/mL | MIC (Enterobacter cloacae; [15]): 50 µg/mL | MIC (Moraxella catarrhalis; [16]): 12.5 µg/mL | MIC (Serratia marcescens; [17]): 50 µg/mL | MIC (Proteus vulgaris; [18]): 12.5 µg/mL | MIC (E. coli BL21; 10 h cultivation at 37° C.): 25 µg/mL | MIC (E. coli DH5α): 50 µg/mL | MIC (Proteus mirabilis; [19]): 50 µg/mL | MIC (Pseudomonas aeruginosa; [20]): 12.5 µg/mL

PRT403 (DNDECSAQPGPCGAHGHCHNTPGSFRCECHQGFTLVSSGHGCE; listed as Homo sapiens)
MIC (Klebsiella pneumonia; [1]): 25 µg/mL | MIC (Aeromonas hydrophila; [2]): 25 µg/mL | MIC (Citrobacter diversus; [3]): 50 µg/mL | MIC (Enterobacter cloacae; [4]): 12.5 µg/mL | MIC (Moraxella catarrhalis; [5]): 25 µg/mL | MIC (Serratia marcescens; [6]): 50 µg/mL | MIC (Proteus vulgaris; [7]): 25 µg/mL | MIC (E. coli BL21; [8]): 25 µg/mL | MIC (E. coli DH5α): 12.5 µg/mL | MIC (Proteus mirabilis; [9]): 12.5 µg/mL | MIC (Pseudomonas aeruginosa; [10]): 50 µg/mL

PRT112 (DINECTDFVDVPCSHFCNNFIGGYFCSCPPEYFLHDDMKNCG; listed as Homo sapiens)
MIC (μg/mL) K. pneumonia (Klebsiella pneumonia; [21]): 12.5 µg/mL | MIC (μg/mL) A. hydrophila (Aeromonas hydrophila; [22]): 12.5 µg/mL | MIC (μg/mL) C. diversus (Citrobacter diversus; [23]): 12.5 µg/mL | MIC (μg/mL) E. cloacae (Enterobacter cloacae; [24]): 12.5 µg/mL | MIC (μg/mL) M. catarrhalis (Moraxella catarrhalis; [25]): 12.5 µg/mL | MIC (μg/mL) S. marcescens (Serratia marcescens; [26]): 50 µg/mL | MIC (μg/mL) P. vulgaris (Proteus vulgaris; [27]): 12.5 µg/mL | MIC (μg/mL) E. coli BL21 (E. coli BL21; [28]): 12.5 µg/mL | MIC (E. coli DH5α): 50 µg/mL | MIC (μg/mL) P. mirabilis (Proteus mirabilis; [29]): 50 µg/mL | MIC (μg/mL) P. aeruginosa (Pseudomonas aeruginosa; [30]): 50 µg/mL

PRT1212 (DIDECSGNPCLHGALCENTHGSYHCNCSHEYRGRHCE; listed as Homo sapiens)
MIC against K. pneumonia (Klebsiella pneumonia; [21]): 50 µg/mL | MIC against A. hydrophila (Aeromonas hydrophila; [22]): 25 µg/mL | MIC against C. diversus (Citrobacter diversus; [23]): 12.5 µg/mL | MIC against E. cloacae (Enterobacter cloacae; [24]): 25 µg/mL | MIC against M. catarrhalis (Moraxella catarrhalis; [25]): 25 µg/mL | MIC against S. marcescens (Serratia marcescens; [26]): 12.5 µg/mL | MIC against P. vulgaris (Proteus vulgaris; [27]): 25 µg/mL | MIC against E. coli BL21 (E. coli BL21; [28]): 25 µg/mL | MIC (E. coli DH5α): 50 µg/mL | MIC against P. mirabilis (Proteus mirabilis; [29]): 50 µg/mL | MIC against P. aeruginosa (Pseudomonas aeruginosa; [30]): 12.5 µg/mL

PRT922 (LQCRDGYEPCVNEGMCVTYHNGTGYCKCPEGFLGEYCQ; listed as Homo sapiens)
MIC (Klebsiella pneumonia; [12]): 12.5 µg/mL | MIC (Aeromonas hydrophila; [13]): 25 µg/mL | MIC (Citrobacter diversus; [14]): 25 µg/mL | MIC (Enterobacter cloacae; [15]): 25 µg/mL | MIC (Moraxella catarrhalis; [16]): 25 µg/mL | MIC (Serratia marcescens; [17]): 12.5 µg/mL | MIC (Proteus vulgaris; [18]): 25 µg/mL | MIC (E. coli BL21; 10 h cultivation at 37° C.): 25 µg/mL | MIC (E. coli DH5α): 12.5 µg/mL | MIC (Proteus mirabilis; [19]): 50 µg/mL | MIC (Pseudomonas aeruginosa; [20]): 12.5 µg/mL

PRT691 (DINECDEAEAASPLCVNARCLNTDGSFRCICRPGFAPTHQPHHCA; listed as Homo sapiens)
MIC K. pneumonia (Klebsiella pneumonia; [28]): 50 µg/mL | MIC A. hydrophila (Aeromonas hydrophila; [28]): 12.5 µg/mL | MIC C. diversus (Citrobacter diversus; [28]): 50 µg/mL | MIC E. cloacae (Enterobacter cloacae; [28]): 25 µg/mL | MIC M. catarrhalis (Moraxella catarrhalis; [28]): 12.5 µg/mL | MIC S. marcescens (Serratia marcescens; [28]): 12.5 µg/mL | MIC P. vulgaris (Proteus vulgaris; [28]): 50 µg/mL | MIC E. coli BL21 (E. coli BL21; [28]): 50 µg/mL | MIC (E. coli DH5α): 25 µg/mL | MIC P. mirabilis (Proteus mirabilis; [28]): 25 µg/mL | MIC P. aeruginosa (Pseudomonas aeruginosa; [28]): 12.5 µg/mL

PRT1197 (DIDECAAKMHYCHANTVCVNLPGLYRCDCVPGYIRVDDFSCT; listed as Homo sapiens)
MIC against K. pneumonia (Klebsiella pneumonia; [21]): 50 µg/mL | MIC against A. hydrophila (Aeromonas hydrophila; [22]): 50 µg/mL | MIC against C. diversus (Citrobacter diversus; [23]): 25 µg/mL | MIC against E. cloacae (Enterobacter cloacae; [24]): 12.5 µg/mL | MIC against M. catarrhalis (Moraxella catarrhalis; [25]): 12.5 µg/mL | MIC against S. marcescens (Serratia marcescens; [26]): 25 µg/mL | MIC against P. vulgaris (Proteus vulgaris; [27]): 50 µg/mL | MIC against E. coli BL21 (E. coli BL21; [28]): 12.5 µg/mL | MIC (E. coli DH5α): 25 µg/mL | MIC against P. mirabilis (Proteus mirabilis; [29]): 25 µg/mL | MIC against P. aeruginosa (Pseudomonas aeruginosa; [30]): 25 µg/mL

PRT1467 (QPQDCPPSTCLNGGTCHLGTRHHLACLCPEGFTGLYCE; listed as Homo sapiens)
MIC against K. pneumonia (Klebsiella pneumonia; Klebsiella pneumonia, 5×10^5 CFU/mL, 10 h cultivation at 37° C.): 12.5 µg/mL | MIC against A. hydrophila (Aeromonas hydrophila; Aeromonas hydrophila, 5×10^5 CFU/mL, 10 h cultivation at 37° C.): 25 µg/mL | MIC against C. diversus (Citrobacter diversus; Citrobacter diversus, 5×10^5 CFU/mL, 10 h cultivation at 37° C.): 12.5 µg/mL | MIC against E. cloacae (Enterobacter cloacae; Enterobacter cloacae, 5×10^5 CFU/mL, 10 h cultivation at 37° C.): 50 µg/mL | MIC against M. catarrhalis (Moraxella catarrhalis; Moraxella catarrhalis, 5×10^5 CFU/mL, 10 h cultivation at 37° C.): 25 µg/mL | MIC against S. marcescens (Serratia marcescens; Serratia marcescens, 5×10^5 CFU/mL, 10 h cultivation at 37° C.): 12.5 µg/mL | MIC against P. vulgaris (Proteus vulgaris; Proteus vulgaris, 5×10^5 CFU/mL, 10 h cultivation at 37° C.): 25 µg/mL | MIC against E. coli BL21 (E. coli BL21; 5×10^5 CFU/mL, 10 h cultivation at 37° C.): 50 µg/mL | MIC (E. coli DH5α): 25 µg/mL | MIC against P. mirabilis (Proteus mirabilis; Proteus mirabilis, 5×10^5 CFU/mL, 10 h cultivation at 37° C.): 50 µg/mL | MIC against P. aeruginosa (Pseudomonas aeruginosa; Pseudomonas aeruginosa, 5×10^5 CFU/mL, 10 h cultivation at 37° C.): 25 µg/mL
